The values that follow come from patent US11649209B2, “Crystalline freebase forms of a biphenyl compound” (THERAVANCE BIOPHARMA R&D IP, LLC, priority 2009, dated 2023).

One may read the solubility as the dissolved amount per volume that the medium holds. By Ki is commonly meant the equilibrium dissociation constant of an inhibitor or competing ligand from its target.

Each structure is given as a SMILES string. Values after ≈ are worked out from the molar mass of the structure shown. Read-outs that look alike come from different tables or passages of the source.

One data set deals with MCh response. Put plainly: Rat Einthoven assay (bronchoprotection against MCh). The conditions noted are these: for ID50: 1.5 hrs post-dose, inhalation. The format is in vivo. The protocol:
All test compounds are diluted in sterile water and are dosed via the inhalation route (IH). […] Each test compound solution is nebulized over a 10 minute time period in a pie shaped dosing chamber capable of holding six rats. At predetermined time points after inhalation of compound, the Einthoven assay is performed. […] The jugular vein is catheterized with saline filled polyethylene catheters (PE-50) and used to infuse MCh. The trachea is then dissected and cannulated with a 14G needle and used for rat ventilation during pulmonary evaluation. Once surgery is complete, rats are ventilated using a piston respirator set at a stroke volume of 1 ml/100 g body weight but not exceeding 2.5 ml volume, and at a rate of 90 strokes per minute. The changes in pressure that occur with each breath are measured. […] The MCh is infused for 2.5 minutes from a syringe pump at a rate of 2 mL/kg/min. The animals are euthanized upon completion of the studies. Changes in ventilation pressure (cm H2O) in treated animals are expressed as % inhibition of MCh response relative to control animals.

In data set [1] the test system is pilocarpine-induced salivation. Put plainly: Rat antisialagogue assay. The format is in vivo. The conditions noted are these: evaluated at 1, 6 and 24 hr post-dose. The protocol: Rats (Sprague-Dawley, male, 250-350 g) are dosed, anesthetized and cannulated as described for Assay 3. At predetermined time points and after surgery, animals are placed on their dorsal side at a 20° incline with their head in a downward slope. A pre-weighed gauze pad is inserted in the animal's mouth and the muscarinic agonist pilocarpine (PILO) (3 mg/kg, iv.) is administered. Saliva produced during 10 minutes post-PILO is measured gravimetrically by determining the weight of the gauze pad before and after PILO. Antisialagogue effects are expressed as % inhibition of salivation relative to control animals.
The rat antisialagogue assay was developed to assess systemic exposure and calculate the lung selectivity index (LSI) of test compounds. The standard, tiotropium, was evaluated in this model at 1, 6, and 24 hr post-dose. […] This finding is consistent with the peak effects observed in the Einthoven assay.
This model is a modified version of the procedure described in Rechter, “Estimation of anticholinergic drug effects in mice by antagonism against pilocarpine-induced salivation” Ata Pharmacol Toxicol 24:243-254 (1996). The mean weight of saliva in vehicle-treated animals, at each pre-treatment time, is calculated and used to compute % inhibition of salivation, at the corresponding pre-treatment time, at each dose.

Data set [2] in a line: Gravimetric vapor sorption assessment. Format: physicochemical. The protocol: Gravimetric vapor sorption (GVS) studies were performed using a Surface
Measurements System DVS-1 instrument for generation of full sorption isotherm using water vapor perfusion at 25° C. A sample size of approximately 7 mg was placed into a clean and dry tared sample mesh pan and weighed using the internal balance. The target relative humidity (RH) ranges were from 30% to 90%, then 90% to 0% and 0% to 30% with 10% steps. The point of equilibrium was automatically determined using a 0.02 dm/dt asymptote setting.

Data set [3] is described as follows: Micronization, particle size by laser light diffraction. Format: physicochemical. The source says:
Samples of the crystalline freebase Form III were micronized using either an APTM 4″ micronizer and the particle size determined buy laser light diffraction.

A short description of data set [4]: Storage stability of micronized material (PXRD, DSC). The format is physicochemical. The conditions noted are these: 3 months at 40° C./20% RH, 50° C./ambient humidity. The method, then:
For reference, the particle size of the input crystalline freebase Form III was X10=5.58 μm X50=18.2 μm, and X90=49.7 μm. Micronization yielded particles in the respirable size range.
There was an additional small thermal event in the micronized material at 87° C., likely due to crystallization.

Another data set is described as follows: pH solubility. The format is physicochemical. Particulars: for solubility: thermodynamic from solid. The method, then:
Solubility in water is 0.66 mg/mL with a natural pH of 8.9.

The nature of another data set: Solution stability. Format: physicochemical. The method, then: The crystalline freebase Form III solutions are stable in pH 4 and pH 6 buffers for up to 7 days at 50° C. or exposed to light. The solutions are stable in water and saline for 7 days at room temperature, protected from light.
The nature of data set [5]: Exposure to atmospheric moisture, elevated temperature and humidity. The format is physicochemical.
The target in data set [6] is T1, M3 muscarinic receptor subtype (Homo sapiens, UniProt P20309).
T1 construct: expressed in transfected cells
T1 sequence (P20309 whole entry): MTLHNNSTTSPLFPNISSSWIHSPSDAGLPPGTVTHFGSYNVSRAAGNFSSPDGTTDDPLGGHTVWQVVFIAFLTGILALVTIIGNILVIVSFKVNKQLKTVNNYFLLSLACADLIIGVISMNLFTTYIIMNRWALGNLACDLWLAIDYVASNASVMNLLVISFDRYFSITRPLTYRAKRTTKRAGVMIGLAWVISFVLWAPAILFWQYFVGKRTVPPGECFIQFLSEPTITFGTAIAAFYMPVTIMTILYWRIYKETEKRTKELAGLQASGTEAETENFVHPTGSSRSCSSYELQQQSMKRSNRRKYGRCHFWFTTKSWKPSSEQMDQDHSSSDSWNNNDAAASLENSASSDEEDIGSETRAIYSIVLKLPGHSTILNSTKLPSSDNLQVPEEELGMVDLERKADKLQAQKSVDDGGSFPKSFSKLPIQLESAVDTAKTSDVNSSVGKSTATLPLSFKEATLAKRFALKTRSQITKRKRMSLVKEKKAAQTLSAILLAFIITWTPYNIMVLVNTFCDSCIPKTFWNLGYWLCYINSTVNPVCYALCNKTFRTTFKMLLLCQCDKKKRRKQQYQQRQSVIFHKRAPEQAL
Put plainly: Radioligand binding assay ([3H]-NMS displacement) on muscarinic receptor subtypes. The conditions noted are these: this or a similar assay. The protocol: CHO cell lines stably expressing cloned human hM1, hM2, hM3 and hM4 muscarinic receptor subtypes, respectively, were grown to near confluency in medium consisting of HAM's F-12 supplemented with 10% FBS and 250 μg/mL Geneticin. The cells were grown in a 5% CO2, 37° C. incubator and lifted with 2 mM EDTA in dPBS. Cells were collected by 5 minute centrifugation at 650×g, and cell pellets were either stored frozen at −80° C. or membranes were prepared immediately. For membrane preparation, cell pellets were resuspended in lysis buffer and homogenized with a Polytron PT-2100 tissue disrupter (Kinematica AG; 20 seconds×2 bursts). Crude membranes were centrifuged at 40,000×g for 15 minutes at 4° C. […] The protein concentration of the membrane suspension was determined by the method described in Lowry, O. et al.,Journal of Biochemistry 193:265 (1951). […]
Radioligand binding assays were performed in 96-well microtiter plates in a total assay volume of […]. […] Filter plates were rinsed three times with wash buffer (10 mM HEPES) to remove unbound radioactivity. […] The plates were then counted in a PerkinElmer Topcount liquid scintillation counter (PerkinElmer Inc., Wellesley, Mass.). Binding data were analyzed by nonlinear regression analysis with the GraphPad Prism Software package (GraphPad Software, Inc., San Diego, Calif.) using the one-site competition model. […]

Another data set addresses T2, hM3 receptor (Homo sapiens, UniProt P20309).
T2 construct: expressed in transfected cells
The data set can be described thus: Blockade of agonist-mediated calcium release via FLIPR. The format is cell-based. Particulars: CHO cells stably expressing the hM3 receptor. The source says:
Muscarinic receptor subtypes (M1, M3 and M5 receptors), which couple to Gq proteins, activate the phospholipase C (PLC) pathway upon agonist binding to the receptor. As a result, activated PLC hydrolyzes phosphatyl inositol diphosphate (PIP2) to diacylglycerol (DAG) and […] (IP3), which in turn generates calcium release from intracellular stores, i.e., endoplasmic and sarcoplasmic reticulum. The FLIPR (Molecular Devices, Sunnyvale, Calif.) assay capitalizes on this increase in intracellular calcium by using a calcium sensitive dye (Fluo-4AM, Molecular Probes, Eugene, Oreg.) that fluoresces when free calcium binds. This fluorescence event is measured in real time by the FLIPR, which detects the change in fluorescence from a monolayer of cells cloned with human M1 and M3, and chimpanzee M5 receptors. Antagonist potency can be determined by the ability of antagonists to inhibit agonist-mediated increases in intracellular calcium. […]
To determine antagonist potency, the dose-dependent stimulation of intracellular Ca^2+ release for oxotremorine is first determined so that antagonist potency can later be measured against oxotremorine stimulation at an EC90 concentration. […]
The change of fluorescence is expressed as maximum fluorescence minus baseline fluorescence for each well. […]

[7] abbreviates: input material before micronization.

T2 sequence (P20309 whole entry): as above

As for `C[N+]1(C)[C@@H]2C[C@@H](OC(=O)C(O)(c3cccs3)c3cccs3)C[C@H]1[C@@H]1O[C@@H]12` [tiotropium], the ID50 with MCh response amounted to 6 µg/mL. The “fold more potent at 6 hr and 24 hr compared to 1.5 hr potency” value in the data set with MCh response (6 hr and 24 hr post-dose) is on record as “about 2 fold”. Moreover, the “time of peak bronchoprotection post-dose” value in the data set with MCh response (slow onset of effect) was determined as 6 h. The “time post dose of highest potency at inhibiting pilocarpine-induced salivation” value in [1] came to 6 h.
As for `CC(C)[N+]1(C)[C@@H]2CC[C@H]1C[C@@H](OC(=O)C(CO)c1ccccc1)C2` (some centres unmarked) [ipratropium], in the data set with MCh response (10 and 30 μg/ml, 6 hr post-dose), the “fold less potent 6-hr post-dose compared to 1.5 hr potency” value is recorded as “about 3 fold”. This molecule also gave an ID50 in the data set with MCh response of 4.4 µg/mL.
`C[N+]1(C)CCC(OC(=O)C(O)(c2ccccc2)C2CCCC2)C1` (centres unmarked) [glycopyrrolate] had an ID50 in the data set with MCh response of 15 µg/mL.
As to `CN(CCN1CCC(OC(=O)Nc2ccccc2-c2ccccc2)CC1)C(=O)c1ccc(CN2CCC(C(N)=O)CC2)cc1` [Form III, Biphenyl-2-ylcarbamic Acid 1-(2-{[4-(4-Carbamoylpiperidin-1-ylmethyl)benzoyl]methylamino}ethyl)piperidin-4-yl Ester], the reversible water uptake in [2] (between 0 and 90% RH at 25° C.) is given as under 2 % w/w; in data set [2] (between 0 and 90% relative humidity at 25° C.), under 2 % wt/wt. For the same molecule, the “Particle size X10” value in [3] (setting [7]) was 5.58 μm; in [3] (micronized material), 1.27 μm. In addition, the “Particle size X50” value in data set [3] (setting [7]) is listed as 18.2 μm; in data set [3] (micronized material) it was 2.69 μm. The figures for the “Particle size X90” value in data set [3] (setting [7]) and in data set [3] (micronized material) were 49.7 μm and 5.25 μm, respectively. The “change in PXRD after storage” value in [4] (40° C./75% RH (uncapped)) is “No changes were observed”. For the same molecule, the “amorphous content by DSC after storage” value in [4] (40° C./75% RH naked) is given as “no evidence of amorphous content”. In addition, the solubility in “pH solubility” (aqueous buffer, in media up to pH 7, read-out: Solubility) is over 2000 µg/mL; in “pH solubility” (simulated lung fluid, fassgf or other biorelevant, no change between 4 hour and 24 hour measurements, read-out: Solubility in simulated lung fluid), 460 µg/mL (≈ 770 µM); in the data set “pH solubility” (water, pH 8.9, water, natural pH of 8.9, read-out: Solubility in water) it was 660 µg/mL (≈ 1100 µM). In addition, the “natural pH in water” value in the data set “pH solubility” (at solubility in water) came out at 8.9. Also, in the data set “Solution stability” (7 days at room temperature, protected from light), the “solution stability in water and saline” value is “stable”. Moreover, in “Solution stability” (pH 4 and pH 6 buffers, up to 7 days at 50° C. or exposed to light), the “solution stability in buffers” value is listed as “stable”. The “stability upon exposure to elevated temperature and humidity” value in [5] is listed as “stable”.
Turning to `CN(CCN1CCC(OC(=O)Nc2ccccc2-c2ccccc2)CC1)C(=O)c1ccc(CN2CCC(C(N)=O)CC2)cc1` [compound of formula I, biphenyl-2-ylcarbamic acid 1-(2-{[4-(4-carbamoylpiperidin-1-ylmethyl)benzoyl]methylamino}ethyl)piperidin-4-yl ester], the Ki (in data set [6]; at hM3 receptor) was under 5 nM each time.
